Test results reported in paper PMC6032158, “Structure–Activity Relationship of Piplartine and Synthetic Analogues against Schistosoma mansoni and Cytotoxicity to Mammalian Cells” (International Journal of Molecular Sciences, 2018).
“Also recorded” adds a separate entry of the source.

Experiments:
[1] = system: murine fibroblast (NIH-3T3) cells; assay: MTT cytotoxicity assay in murine fibroblasts; type: cell-based; set-up: Emax: dose or concentration left out as unconfirmed
Procedure, shortened: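 NIH-3T3 cells exposed 24 h to samples at 25–800 µg/mL in 3% DMSO, with 3% DMSO as control. MTT (5 mg/mL stock) added for 2 h, formazan dissolved in DMSO, absorbance read at 595 nm.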

[2] = system: J774A.1 cells; assay: Cell death mechanism, annexin-V FITC / propidium iodide staining by flow cytometry; type: cell-based, mouse; details: J774A.1, 24 h; piplartine 25 μg/mL, 14B 400 μg/mL
Method: Cells were then treated with 2 µL of annexin-V FITC (Apoptosis Detection Kit; BD Biosciences, Franklin Lakes, NJ, USA) and 2 µL of propidium iodide (PI, 50 µg/mL) for 15 min in the dark at room temperature. Next, 100 µL binding buffer was added and samples were analysed by flow cytometry (BD LSFortessa^TM, Franklin Lakes, NJ, USA). A total of 20,000 events were collected per sample.

[3] = system: 49-day-old S. mansoni adult worms; assay: In vitro experiments with adult worms of S. mansoni (mortality, motor activity); type: cell-based, Schistosoma mansoni; details: for Dead Worms (%) F / Motor Activity Reduction (%) Significant F / Motor Activity Reduction (%) Slight F: female worms; for Dead Worms (%) M / Motor Activity Reduction (%) Significant M / Motor Activity Reduction (%) Slight M: male worms
Procedure, shortened: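 BH-strain worm pairs recovered from hamsters 49 days post-infection, washed in RPMI 1640 with penicillin, streptomycin and amphotericin B, and cultured as mated pairs with or without drug for 96 h. Motor activity changes and death were scored by microscopy.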

[4] = system: S. mansoni schistosomula and adult worms; set-up: method as in PMID 20832410, PMID 22796749; details: cited from earlier work
[5] = system: mouse BALB/cN macrophage (J774A.1) cell line; assay: Cell viability by flow cytometry in macrophages; details: 24 h, 25, 100 and 400 µg/mL, vs DMEM control

Compound: COc1cc(/C=C/C(=O)N2CCC=CC2=O)cc(OC)c1OC [Piplartine, 3,4,5-trimethoxycinnamoyl-N-dihydropyridin-2-one]
- effect on NIH-3T3 cell viability (in words) ([1]; MTT, 24 h exposure, 25 to 800 µg/mL): decreased cell viability after 24 h of exposure, exhibiting considerable toxicity; also recorded: showed toxicity at all concentrations tested
- Emax ([1]; Mus musculus, NIH3T3, 24 h): 96.94 ± 0.12%
- annexin-V FITC staining (apoptosis marker) vs DMEM negative control (in words) [2]: significant (p < 0.05) increase in annexin-V FITC staining
- Dead Worms (%) F ([3]; 5 µM, 24 h): 0%
- Motor Activity Reduction (%) Significant F ([3]; 5 µM, 24 h): 0%
- Motor Activity Reduction (%) Slight F ([3]; 5 µM, 24 h): 100%
- Dead Worms (%) M ([3]; 5 µM, 24 h): 0%
- Motor Activity Reduction (%) Significant M ([3]; 5 µM, 24 h): 0%
- Motor Activity Reduction (%) Slight M ([3]; 5 µM, 24 h): 100%
- Dead Worms (%) F ([3]; 5 µM, 48 h): 0%
- Motor Activity Reduction (%) Significant F ([3]; 5 µM, 48 h): 0%
- Motor Activity Reduction (%) Slight F ([3]; 5 µM, 48 h): 100%
- Dead Worms (%) M ([3]; 5 µM, 48 h): 0%
- Motor Activity Reduction (%) Significant M ([3]; 5 µM, 48 h): 0%
- Motor Activity Reduction (%) Slight M ([3]; 5 µM, 48 h): 100%
- Dead Worms (%) F ([3]; 5 µM, 72 h): 0%
- Motor Activity Reduction (%) Significant F ([3]; 5 µM, 72 h): 0%
- Motor Activity Reduction (%) Slight F ([3]; 5 µM, 72 h): 100%
- Dead Worms (%) M ([3]; 5 µM, 72 h): 0%
- Motor Activity Reduction (%) Significant M ([3]; 5 µM, 72 h): 0%
- Motor Activity Reduction (%) Slight M ([3]; 5 µM, 72 h): 100%
- Dead Worms (%) F ([3]; 5 µM, 96 h): 60%
- Motor Activity Reduction (%) Significant F ([3]; 5 µM, 96 h): 60%
- Motor Activity Reduction (%) Slight F ([3]; 5 µM, 96 h): 0%
- Dead Worms (%) M ([3]; 5 µM, 96 h): 60%
- Motor Activity Reduction (%) Significant M ([3]; 5 µM, 96 h): 60%
- Motor Activity Reduction (%) Slight M ([3]; 5 µM, 96 h): 0%
- Dead Worms (%) F ([3]; 10 µM, 24 h): 100%
- Motor Activity Reduction (%) Significant F ([3]; 10 µM, 24 h): 100%
- Motor Activity Reduction (%) Slight F ([3]; 10 µM, 24 h): 0%
- Dead Worms (%) M ([3]; 10 µM, 24 h): 100%
- Motor Activity Reduction (%) Significant M ([3]; 10 µM, 24 h): 100%
- Motor Activity Reduction (%) Slight M ([3]; 10 µM, 24 h): 0%
- Dead Worms (%) F ([3]; 10 µM, 48 h): 100%
- Motor Activity Reduction (%) Significant F ([3]; 10 µM, 48 h): 100%
- Motor Activity Reduction (%) Slight F ([3]; 10 µM, 48 h): 0%
- Dead Worms (%) M ([3]; 10 µM, 48 h): 100%
- Motor Activity Reduction (%) Significant M ([3]; 10 µM, 48 h): 100%
- Motor Activity Reduction (%) Slight M ([3]; 10 µM, 48 h): 0%
- Dead Worms (%) F ([3]; 10 µM, 72 h): 100%
- Motor Activity Reduction (%) Significant F ([3]; 10 µM, 72 h): 100%
- Motor Activity Reduction (%) Slight F ([3]; 10 µM, 72 h): 0%
- Dead Worms (%) M ([3]; 10 µM, 72 h): 100%
- Motor Activity Reduction (%) Significant M ([3]; 10 µM, 72 h): 100%
- Motor Activity Reduction (%) Slight M ([3]; 10 µM, 72 h): 0%
- Dead Worms (%) F ([3]; 10 µM, 96 h): 100%
- Motor Activity Reduction (%) Significant F ([3]; 10 µM, 96 h): 100%
- Motor Activity Reduction (%) Slight F ([3]; 10 µM, 96 h): 0%
- Dead Worms (%) M ([3]; 10 µM, 96 h): 100%
- Motor Activity Reduction (%) Significant M ([3]; 10 µM, 96 h): 100%
- Motor Activity Reduction (%) Slight M ([3]; 10 µM, 96 h): 0%
- concentrations active against S. mansoni ([3]; adult worms): 5 to 10 µM
- activity against S. mansoni adult worms (in words) ([3]; analogues 50, 25, 10 and 5 μM, piplartine 5 and 10 μM, up to 96 h): showed activity against the parasite 24 h after incubation
- concentration with in vitro schistosomicidal activity [4]: 10 µM
- effect on J774A.1 cell viability (in words) [5]: significantly (p < 0.05) affected cell viability at concentrations of 25 and 100 µg/mL
- effect on J774A.1 cell viability (in words) ([5]; listed as piplartine): more toxic to mammalian cells than the analogues
